Measurements: article PMC9849758, “Chemically diverse activity-based probes with unexpected inhibitory mechanisms targeting trypsin-like serine proteases” (Frontiers in Chemistry, 2023)
“Also recorded” adds a separate entry of the source.

What was measured:
[1] = biological target: T1, β-tryptase (Homo sapiens, UniProt P20231); test: Kinetic progress curves (kapp, K1, KI*, mechanism); type: biochemical; set-up: purchased EnzoLife Sciences; details: for β-tryptase kapp: apparent second-order rate constant from progress curves; for β-tryptase kapp / Ki: mean ± SD; for β-tryptase mechanism of inhibition: defined by the progress curves: slow-binding (Rev.) or irreversible (Irrev.)
T1 sequence (P20231 31-275): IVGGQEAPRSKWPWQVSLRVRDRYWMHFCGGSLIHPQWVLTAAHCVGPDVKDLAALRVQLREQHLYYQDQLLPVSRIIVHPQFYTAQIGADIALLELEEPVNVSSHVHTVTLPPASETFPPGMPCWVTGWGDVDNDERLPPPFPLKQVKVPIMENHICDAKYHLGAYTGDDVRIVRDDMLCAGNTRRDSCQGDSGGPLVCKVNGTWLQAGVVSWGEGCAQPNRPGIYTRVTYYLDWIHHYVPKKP
Experimental: (§1) Because the compounds described in this paper were previously described as irreversible inhibitors, the IC50 value is inversely correlated with the second-order rate constant of inactivation. For a simple pseudo-first-order inactivation process, the activity after incubation with inhibitor (vi) varies with the inhibitor concentration (i), as described in the following equation: vi=v0·e^−kit where v0 is the activity in the absence of an inhibitor, k is the second-order rate constant of inactivation, and t is the time. The inactivation rate constant was determined from the time course of inhibition.
(§2) Kinetic assays were performed in the following manner. The inhibitor was mixed with the substrate, and the buffer solution with the enzyme was added at the time zero. The progress curves show the release of pNA or AMC as a function of time. Initially, no inhibitor is bound to the enzyme, and the tangent to the progress curve (dA/dt) is proportional to the free enzyme concentration. The free enzyme concentration decreases over time due to inhibitor binding kinetics, as described above. Progress curves were recorded in pseudo-first-order conditions ([I]0>>[E]0) and with less than 10% conversion of the substrate during the entire time course. In these conditions, dA/dt decreases exponentially with time. The progress curves were fitted with the integrated rate equation with GraFit7 to yield a value for kobs, a pseudo-first-order rate constant. At=Ao+vs∙t+vi−vs∙1−e^−kobs∙t/kobs where At is the absorbance at time t, A0 is the absorbance at time zero, vi is the initial rate and vs is the velocity at the steady-state.
(§3) The apparent second-order rate constant (kapp) was calculated from the slope of the linear part of the plot of kobs vs. the inhibitor concentration ([I]0). In the case of competition between the inhibitor and the substrate, kapp is smaller than the “real” second-order rate constant k discussed above because a certain fraction of the enzyme is present as an enzyme-substrate complex. kapp depends on the substrate concentration used in the experiment, as described by [Lambeir et al. (1996)].
(§4) The apparent equilibrium constants were obtained from the following equations, vi/vo=1/1+I/K1; vS/vo=1/1+I/KI* where vi is the initial rate, vs is the steady-state velocity and vo is the uninhibited initial rate.

[2] = biological target: T2, CatG (Homo sapiens, UniProt P08311); test: Kinetic progress curves (kapp, mechanism); type: biochemical; set-up: Cathepsin G (cathepsin G human neutrophil, Sigma-Aldrich); purchased Sigma-Aldrich; host or cells: human neutrophil; details: for CatG kapp: apparent second-order rate constant from progress curves, mean ± SD; for CatG mechanism of inhibition: defined by the progress curves: slow-binding (Rev.) or irreversible (Irrev.)
T2 sequence (P08311 21-255): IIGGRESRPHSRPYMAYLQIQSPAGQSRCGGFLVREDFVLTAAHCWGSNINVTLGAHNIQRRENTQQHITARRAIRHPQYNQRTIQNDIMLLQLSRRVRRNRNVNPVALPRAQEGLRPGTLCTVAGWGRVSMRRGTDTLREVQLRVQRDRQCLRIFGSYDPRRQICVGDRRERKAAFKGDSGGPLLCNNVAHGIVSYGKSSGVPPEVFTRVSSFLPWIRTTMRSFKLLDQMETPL
Experimental: as §1, §2, §3, §4

[3] = biological target: T3, uPA (Homo sapiens, UniProt P00749); test: Kinetic progress curves (kapp, mechanism); type: biochemical; details: for uPA kapp: apparent second-order rate constant from progress curves, mean ± SD; for uPA mechanism of inhibition: defined by the progress curves: slow-binding (Rev.) or irreversible (Irrev.)
T3 construct: purchased HYPHEN BioMed
Experimental: as §1, §2, §3, §4

[4] = biological target: T1, β-tryptase; test: Labeling and detection of recombinant proteases (SDS-PAGE blot, NeutrAvidin-HRP); type: binding; details: 1 µM ABP, 100 ng protease, 30 min 37°C, denaturing SDS-PAGE blot
Experimental: Recombinant proteases (100 ng) were labeled with 1 µM ABP in reaction buffer in a final volume of 40 µL for 30 min at 37°C. After the addition of 4X Laemmli buffer (Bio-Rad, GmbH) supplemented with Bond-Breaker Tris (2-CarboxyEthyl)Phosphine (TCEP) Solution (Thermo Scientific, United States), the samples were heated at 95°C for 5 min and loaded into 4%–20% Mini-Protean TGX precast gels (Bio-Rad, GmbH). After electrophoresis, the proteins were blotted onto nitrocellulose membranes using the Trans-Blot Transfer Turbo System (Bio-Rad). Membranes were incubated with NeutrAvidin-HRP (1:50,000), and bands were visualized with ECL Select Western Blot Detection Reagent (GE Healthcare Life Sciences) by chemiluminescence (Chemidoc XRS; Bio-Rad). The molecular weight of each band was determined with the Image Lab Software v5 (Bio-Rad).
To further characterize the newly synthesized compounds and their potential to be used as ABPs, nine desthiobiotin probes were used for the labeling and detection of recombinant proteases. The arginine (45b–46b) and the proline-lysine (58b) desthiobiotin probes were used as reference compounds. Whereas the benzyl guanidine (50b, 52b, 54b) and phenyl guanidine probes (55b–57b) were used to determine whether the mechanism of inhibition (reversible or irreversible) is an obstacle to visualize the proteases. Samples of human recombinant proteases (trypsin-3, β-tryptase, and CatG) were incubated with the different probes before electrophoresis and detection with NeutrAvidin-HRP on a Western blot. Figure 7A illustrates the ability of the desthiobiotin probes to indicate the presence of the corresponding trypsin-like enzyme. […] This effect can be explained due to the strong interactions between the active site of the protease and the probes. The high affinity and the slow off-rates were described in Table 5 by the equilibrium constants KI*. Assuming that there is an excess of inhibitor over enzyme, the free inhibitor concentration must be very low, lower than the KI*, in order for the complex to dissociate. Therefore, the high affinity complex E*I survives during the whole process of labeling, gel electrophoresis, and visualization.

[5] = β-tryptase K1, apparent equilibrium constant of the first step of slow-binding
[6] = β-tryptase KI*, apparent equilibrium constant of the overall process

SMILES: C#CCCCOC(=O)NC(c1ccc(NC(=N)N)cc1)P(=O)(Oc1ccccc1)Oc1ccccc1.O=C(O)C(F)(F)F (stereo not drawn) [37b, Pent-4-yn-1-yl ((diphenoxyphosphoryl)(4-guanidinophenyl)methyl)carbamate trifluoroacetate salt]
- β-tryptase kapp [1]: 375 ± 34 M⁻¹ s⁻¹
- β-tryptase mechanism of inhibition [1]: Irrev.
- CatG kapp [2]: 582 ± 2 M⁻¹ s⁻¹
- CatG mechanism of inhibition [2]: Irrev.
- uPA kapp [3]: 124 ± 23 M⁻¹ s⁻¹
- uPA mechanism of inhibition [3]: Irrev.

SMILES: CC(=O)Nc1ccc(OP(=O)(Oc2ccc(NC(C)=O)cc2)C(Cc2ccc(NC(=N)N)cc2)NC(=O)OCCCc2cn(CCOCCOCCOCCNC(=O)CCCCC[C@H]3NC(=O)N[C@H]3C)nn2)cc1 (stereo partly drawn) [52b]
- β-tryptase kapp [1]: 18 × 10^3 ± 1184 M^−1 s^−1
- β-tryptase mechanism of inhibition [1]: Reversible and Rev.
- Ki [1, 5]: 0.68 ± 0.07 µM
- Ki [1, 6]: 0.06 ± 0.003 µM
- CatG mechanism of inhibition [2]: * ^d Rev.
- labeling of recombinant β-tryptase [4]: can label
- uPA kapp [3]: 38 × 10^3 ± 4175 M^−1 s^−1
- uPA mechanism of inhibition [3]: Irrev.

SMILES: C[C@@H]1NC(=O)N[C@@H]1CCCCCC(=O)NCCOCCOCCOCCn1cc(CCCOC(=O)NC(CCCNC(=N)N)P(=O)(Oc2ccc(Cl)cc2)Oc2ccc(Cl)cc2)nn1 (stereo partly drawn) [46b]
- β-tryptase kapp [1]: 75 × 10^2 ± 1475 M^−1 s^−1
- β-tryptase mechanism of inhibition [1]: Irrev.
- labeling of recombinant β-tryptase [4]: not good ABP candidates
- uPA kapp [3]: 940 ± 37 M⁻¹ s⁻¹
- uPA mechanism of inhibition [3]: Irrev.

SMILES: C#CCCCOC(=O)NC(CCCNC(=N)N)P(=O)(Oc1ccc(Cl)cc1)Oc1ccc(Cl)cc1 (stereo not drawn) [33b]
- β-tryptase kapp [1]: 28 × 10^2 ± 82 M^−1 s^−1
- β-tryptase mechanism of inhibition [1]: irreversibility; also recorded: irreversible; also recorded: Irrev
- CatG mechanism of inhibition [2]: * ^d Rev.
- uPA kapp [3]: 15 × 10^2 ± 12 M^−1 s^−1
- uPA mechanism of inhibition [3]: irreversibility; also recorded: Irrev

SMILES: C[C@@H]1NC(=O)N[C@@H]1CCCCCC(=O)NCCOCCOCCOCCn1cc(CCCOC(=O)NC(c2ccc(NC(=N)N)cc2)P(=O)(Oc2ccc(Cl)cc2)Oc2ccc(Cl)cc2)nn1 (stereo partly drawn) [57b]
- β-tryptase kapp [1]: 65 × 10^2 ± 1,203 M^−1 s^−1
- β-tryptase mechanism of inhibition [1]: Irrev.
- CatG kapp [2]: 11 × 10^2 ± 117 M^−1 s^−1
- CatG mechanism of inhibition [2]: reversibly and Rev.
- labeling of recombinant β-tryptase [4]: slightly better resolution
- uPA kapp [3]: 25 × 10^2 ± 11 M^−1 s^−1
- uPA mechanism of inhibition [3]: Irrev.

SMILES: C#CCCCOC(=O)NC(Cc1ccc(NC(=N)N)cc1)P(=O)(Oc1ccc(NC(C)=O)cc1)Oc1ccc(NC(C)=O)cc1 (stereo not drawn) [35b]
- β-tryptase kapp [1]: 70 × 10^2 ± 582 M^−1 s^−1
- β-tryptase mechanism of inhibition [1]: Rev.
- Ki [1, 5]: 3.2 ± 1.8 µM
- Ki [1, 6]: 0.12 ± 0.01 µM
- CatG kapp [2]: 477 ± 67 M⁻¹ s⁻¹
- CatG mechanism of inhibition [2]: Rev.
- uPA kapp [3]: 130000 ± 30000 M⁻¹ s⁻¹
- uPA mechanism of inhibition [3]: Irrev.

SMILES: C#CCCCOC(=O)NC(c1ccc(NC(=N)N)cc1)P(=O)(Oc1ccc(Cl)cc1)Oc1ccc(Cl)cc1 (stereo not drawn) [39b, Pent-4-yn-1-yl ((bis(4-chlorophenoxy)phosphoryl)(4-guanidinophenyl)methyl)carbamate]
- β-tryptase mechanism of inhibition [1]: irreversible; also recorded: Irrev
- CatG mechanism of inhibition [2]: reversibly and Rev.
- uPA mechanism of inhibition [3]: Irrev.

SMILES: C#CCCCOC(=O)NC(C1CCN(C(=N)N)CC1)P(=O)(Oc1ccccc1)Oc1ccccc1 (stereo not drawn) [41b]
- β-tryptase kapp [1]: 27 ± 2 M⁻¹ s⁻¹
- β-tryptase mechanism of inhibition [1]: irreversible inhibition; also recorded: Irrev

SMILES: C[C@@H]1NC(=O)N[C@@H]1CCCCCC(=O)NCCOCCOCCOCCn1cc(CCCOC(=O)NC(CCCNC(=N)N)P(=O)(Oc2ccccc2)Oc2ccccc2)nn1 (stereo partly drawn) [45b]
- β-tryptase kapp [1]: 237 ± 42 M⁻¹ s⁻¹
- β-tryptase mechanism of inhibition [1]: Irrev.
- labeling of recombinant β-tryptase [4]: not good ABP candidates

SMILES: C#CCCCOC(=O)NC(c1ccc(NC(=N)N)cc1)P(=O)(Oc1ccc(NC(C)=O)cc1)Oc1ccc(NC(C)=O)cc1 (stereo not drawn) [38b, Pent-4-yn-1-yl ((bis(4-acetamidophenoxy)phosphoryl)(4-guanidinophenyl)methyl) carbamate]
- β-tryptase kapp [1]: 20 × 10^2 ± 54 M^−1 s^−1
- β-tryptase mechanism of inhibition [1]: Irrev.
- CatG kapp [2]: 14 × 10^2 ± 52 M^−1 s^−1
- CatG mechanism of inhibition [2]: Irrev.
- uPA kapp [3]: 215 ± 7 M⁻¹ s⁻¹
- uPA mechanism of inhibition [3]: Irrev.

SMILES: C[C@@H]1NC(=O)N[C@@H]1CCCCCC(=O)NCCOCCOCCOCCn1cc(CCCOC(=O)NC(c2ccc(NC(=N)N)cc2)P(=O)(Oc2ccccc2)Oc2ccccc2)nn1 (stereo partly drawn) [55b]
- β-tryptase kapp [1]: 347 ± 19 M⁻¹ s⁻¹
- β-tryptase mechanism of inhibition [1]: Irrev.
- CatG kapp [2]: 301 ± 85 M⁻¹ s⁻¹
- CatG mechanism of inhibition [2]: Irrev.
- uPA kapp [3]: 77 ± 1 M⁻¹ s⁻¹
- uPA mechanism of inhibition [3]: Irrev.

SMILES: CC(=O)Nc1ccc(OP(=O)(Oc2ccc(NC(C)=O)cc2)C(NC(=O)OCCCc2cn(CCOCCOCCOCCNC(=O)CCCCC[C@H]3NC(=O)N[C@H]3C)nn2)c2ccc(NC(=N)N)cc2)cc1 (stereo partly drawn) [56b]
- β-tryptase kapp [1]: 321 ± 2 M⁻¹ s⁻¹
- β-tryptase mechanism of inhibition [1]: Irreversible; also recorded: Irrev
- CatG kapp [2]: 420 ± 37 M⁻¹ s⁻¹
- CatG mechanism of inhibition [2]: Irrev.
- uPA kapp [3]: 62 ± 2 M⁻¹ s⁻¹
- uPA mechanism of inhibition [3]: Irrev.

SMILES: C#CCCCOC(=O)NC(Cc1ccc(NC(=N)N)cc1)P(=O)(Oc1ccccc1)Oc1ccccc1 (stereo not drawn) [34b]
- β-tryptase kapp [1]: 712 ± 41 M⁻¹ s⁻¹
- β-tryptase mechanism of inhibition [1]: Rev.
- Ki [1, 5]: 15.8 ± 5 µM
- Ki [1, 6]: 1.11 ± 0.09 µM
- CatG mechanism of inhibition [2]: * ^d Rev.
- uPA kapp [3]: 75 × 10^2 ± 725 M^−1 s^−1
- uPA mechanism of inhibition [3]: Irrev.

SMILES: C#CCCCOC(=O)NC(Cc1ccc(NC(=N)N)cc1)P(=O)(Oc1ccc(Cl)cc1)Oc1ccc(Cl)cc1 (stereo not drawn) [36b]
- β-tryptase kapp [1]: 61 × 10^3 ± 6860 M^−1 s^−1
- β-tryptase mechanism of inhibition [1]: reversible and Rev.
- Ki [1, 5]: 0.34 ± 0.07 µM
- Ki [1, 6]: 0.09 ± 0.01 µM
- CatG mechanism of inhibition [2]: * ^d Rev.
- uPA kapp [3]: 320000 ± 29000 M⁻¹ s⁻¹
- uPA mechanism of inhibition [3]: Irrev.

SMILES: C#CCCCOC(=O)NC(CCCNC(=N)N)P(=O)(Oc1ccccc1)Oc1ccccc1 (stereo not drawn) [32b]
- β-tryptase kapp [1]: 41 ± 5 M⁻¹ s⁻¹
- β-tryptase mechanism of inhibition [1]: Irrev.
- CatG mechanism of inhibition [2]: * ^d Rev.
- uPA kapp [3]: 41 ± 4 M⁻¹ s⁻¹
- uPA mechanism of inhibition [3]: Irrev.
